Measurements as given in ChEMBL document CHEMBL1135216, “New 2-(1-adamantylcarbonyl)pyridine and 1-acetyladamantane thiosemicarbazones-thiocarbonohydrazones: cell growth inhibitory, antiviral and antimicrobial activity evaluation” (Bioorg Med Chem Lett, 2002).
pEC50: −log10 of the molar value. Values after ≈ are worked out from the molar mass of the structure shown.

Assays:
[1] = system: CCRF-CEM; experiment: Tested for the inhibitory concentration against cell growth of human leukemic cell line CCRF-CEM; type: functional
[2] = system: CCRF-CEM; experiment: Tested for the concentration required to reduce the viability of leukemia cells by 50% against cell growth of T cell leukemia cell line CCRF-CEM using MTT assay; type: functional; conditions: Homo sapiens
[3] = system: CCRF-CEM; experiment: Tested for the inhibitory concentration against cell growth of Tcell leukemic cell line CCRF-CEM using MTT assay; type: functional; conditions: Homo sapiens
[4] = system: E6SM; experiment: Tested for antiviral activity against VSV-virus in human embryonic skin muscle fibroblasts; type: functional; conditions: Muscle tissue
[5] = system: E6SM; experiment: Tested for antiviral activity against herpes simplex virus type 1(KOS) in E6SM cell line(human embryonic skin-muscle fibroblasts); type: functional
[6] = system: E6SM; experiment: Tested for antiviral activity against vaccinia virus in human embryonic skin muscle fibroblast; type: functional; conditions: Muscle tissue
[7] = system: E6SM; experiment: (§1) The compound was tested for antiviral activity against VSV-virus in human epithelial cells; type: functional
[8] = system: E6SM; experiment: Tested for cytotoxic activity in human embryonic skin muscle fibroblast (E6SM); type: functional; conditions: Muscle tissue
[9] = system: E6SM; experiment: Antiviral activity against thymidine kinase-deficient (TK-HSV-1)virus in E6SM cell line(human embryonic skin-muscle fibroblasts); type: functional
[10] = system: Escherichia coli; experiment: Tested for the antimicrobial activity against Escherichia coli ATCC 25922; type: functional
[11] = system: HEL; experiment: Tested for cytotoxic activity in human embryonic lung fibroblast (HEL); type: functional
[12] = system: HEL; experiment: Tested for antiviral activity against human cytomegalovirus (AD-169) in human embryonic lung fibroblasts; type: functional
[13] = system: HEL; experiment: Tested for antiviral activity against thymidine kinase deficient Varicella zoster virus in human embryonic lung fibroblasts; type: functional
[14] = system: HEL; experiment: Tested for antiviral activity against thymidine kinase wild type Varicella zoster virus in human embryonic lung fibroblast; type: functional
[15] = system: HeLa; experiment: Tested for antiviral activity against coxsackie-B4 virus in human epithelial cell line; type: functional
[16] = system: HL-60; experiment: Tested for the inhibitory concentration against cell growth of human leukemic cell line HL60; type: functional
[17] = system: HL-60; experiment: Tested for the concentration required to reduce the viability of leukemia cells by 50% against cell growth of HL60 acute myeloid leukemia using MTT assay; type: functional; conditions: Homo sapiens, read-out: LC50 (the source's name)
[18] = system: HL-60; experiment: Tested for the inhibitory concentration against cell growth of HL60 acute myeloid leukemia using MTT assay; type: functional; conditions: Homo sapiens
[19] = system: HeLa; experiment: Tested for cytotoxic activity in human epithelial cell line (HeLa); type: functional
[20] = system: HuT78; experiment: Tested for the inhibitory concentration against cell growth of human leukemic cell line HuT78; type: functional
[21] = system: HuT78; experiment: Tested for the concentration required to reduce the viability of leukemia cells by 50% against cell growth of HuT78 T lymphoma using MTT assay; type: functional; conditions: Homo sapiens
[22] = system: HuT78; experiment: Tested for the inhibitory concentration against cell growth of HuT78 T lymphoma using MTT assay; type: functional; conditions: Homo sapiens
[23] = system: K562; experiment: Tested for the concentration required to reduce the viability of leukemia cells by 50% against cell growth of K562 chronic myeloid leukemia using MTT assay; type: functional; conditions: Homo sapiens, read-out: LC50 (the source's name)
[24] = system: K562; experiment: Tested for the inhibitory concentration against cell growth of K562 chronic myeloid leukemia using MTT assay; type: functional; conditions: Homo sapiens
[25] = system: K562; experiment: Tested for the inhibitory concentration against cell growth of human leukemic cell line K562; type: functional
[26] = system: Klebsiella pneumoniae; experiment: Tested for the antimicrobial activity against Klebsiella pneumoniae ATCC 13883; type: functional
[27] = system: MOLT-4; experiment: Tested for the inhibitory concentration against cell growth of human leukemic cell line MOLT-4; type: functional
[28] = system: MT4; experiment: Tested for effective concentration required to protect MT-4 cells against the cytopathicity of HIV-1(IIIB); type: functional; conditions: Homo sapiens, read-out: LC50 (the source's name)
[29] = system: MT4; experiment: Tested for effective concentration required to protect MT-4 cells against the cytopathicity of HIV-2(ROD); type: functional, cell-based; conditions: Homo sapiens
[30] = system: MOLT-4; experiment: Tested for the concentration required to reduce the viability of leukemia cells by 50% against cell growth of T cell leukemia cell line MOLT-4 using MTT assay; type: functional; conditions: Homo sapiens
[31] = system: MOLT-4; experiment: Tested for the inhibitory concentration against cell growth of Tcell leukemic cell line MOLT-4 using MTT assay; type: functional; conditions: Homo sapiens
[32] = system: RPMI-8226; experiment: Tested for the inhibitory concentration against cell growth of human leukemic cell line RPMI8226; type: functional
[33] = system: RPMI-8226; experiment: Tested for the concentration required to reduce the viability of leukemia cells by 50% against cell growth of RPMI8226 multiple myeloma using MTT assay; type: functional; conditions: Homo sapiens, read-out: LC50 (the source's name)
[34] = system: RPMI-8226; experiment: Tested for the inhibitory concentration against cell growth of […] multiple myeloma using MTT assay; type: functional; conditions: Homo sapiens
[35] = system: Staphylococcus aureus; experiment: Tested for the antimicrobial activity against Staphylococcus aureus ATCC 6538; type: functional
[36] = system: Staphylococcus epidermidis; experiment: Tested for the antimicrobial activity against Staphylococcus epidermidis ATCC 12228; type: functional
[37] = system: Staphylococcus hominis; experiment: Tested for the antimicrobial activity against Staphylococcus hominis ATCC 27844; type: functional
[38] = system: Vero; experiment: Tested for cytotoxic activity in African green monkey kidney cells (Vero); type: functional; conditions: Chlorocebus sabaeus
[39] = system: Vero; experiment: Tested for antiviral activity against Punta toro virus in African green monkey kidney cell (Vero); type: functional; conditions: Chlorocebus sabaeus
[40] = system: Vero; experiment: Tested for antiviral activity against Reo-1 virus in African green monkey kidney cell (Vero); type: functional; conditions: Chlorocebus sabaeus
[41] = system: Vero; experiment: Tested for antiviral activity against Sindbis virus in African green monkey kidney cell (Vero); type: functional; conditions: Chlorocebus sabaeus
[42] = system: Vero; experiment: Tested for antiviral activity against coxsackie B-4 virus in African green monkey kidney cell (Vero); type: functional; conditions: Chlorocebus sabaeus
[43] = system: Vero; experiment: Tested for antiviral activity against parainfluenza virus in african green monkey kidney cell (Vero); type: functional; conditions: Chlorocebus sabaeus
[44] = system: MT4; experiment: Tested for cytotoxic concentration required to reduce the viability of MT-4 cells by 50%; type: functional, cell-based; conditions: Homo sapiens, read-out: EC50 (the source's name)
[45] = system: E6SM; experiment: Tested for antiviral activity against thymidine kinase-deficient (TK-HSV-2G) virus in E6SM cell line(human embryonic skin-muscle fibroblasts)
[46] = system: E6SM; experiment: Tested for antiviral activity against thymidine kinase-deficient (TK-HSV-2G) virus in E6SM cell line(human embryonic skin-muscle fibroblasts); type: functional
[47] = system: E6SM; experiment: The compound was tested for antiviral activity against thymidine kinase-deficient (TK-HSV-1)virus in E6SM cell line(human embryonic skin-muscle fibroblasts); type: functional
[48] = system: HeLa; experiment: as §1; type: functional
[49] = read-out: LC50 (the source's name)

C/C(=N/N=C(\N)S)C12CC3CC(CC(C3)C1)C2
GI50 [1]: 23.6 µM
TGI [2]: 86.7 µM
TGI [3]: 55.2 µM
MIC [4]: > 400 µg/mL
MIC [5]: 240 µg/mL (≈ 955 µM)
MIC [6]: > 400 µg/mL
MIC [7]: 240 µg/mL (≈ 955 µM)
MCC [8]: > 400 µg/mL
MIC [9]: > 400 µg/mL
MIC [10]: > 3980 µg/mL
MCC [11]: 5 µg/mL
MIC [12]: > 2 µg/mL
MIC [13]: > 2 µg/mL
MIC [14]: > 2000 ng/mL
MIC [15]: > 80 µg/mL
GI50 [16]: 5200 nM
CC50 [17]: 63.6 µM
TGI [18]: 24.1 µM
MCC [19]: 400 µg/mL
GI50 [20]: 2300 nM
TGI [21]: 83.1 µM
TGI [22]: 29.1 µM
CC50 [23]: 62.6 µM
TGI [24]: 10.4 µM
GI50 [25]: 2800 nM
MIC [26]: > 3980 µg/mL
GI50 [27]: 2300 nM
pEC50 [28]: < 5.10
pEC50 [29]: < 5.10
TGI [30]: 59.4 µM
TGI [31]: 9.3 µM
GI50 [32]: 7.1 µM
CC50 [33]: 69.2 µM
TGI [34]: 33.3 µM
MIC [35]: > 3980 µg/mL
MIC [36]: > 3980 µg/mL
MIC [37]: > 3980 µg/mL
MCC [38]: 400 µg/mL
MIC [39]: > 80 µg/mL
MIC [40]: > 80 µg/mL
MIC [41]: > 80 µg/mL
MIC [42]: > 80 µg/mL
MIC [43]: > 80 µg/mL
CC50 [44]: 7.5 µM
MIC [45]: > 80 µg/mL

CC[C@]1(O)C[C@@H]2CN(CCc3c([nH]c4ccccc34)[C@@](C(=O)OC)(c3cc4c(cc3OC)N(C)[C@H]3[C@@](O)(C(=O)OC)[C@H](OC(C)=O)[C@]5(CC)C=CCN6CC[C@]43[C@@H]65)C2)C1 [VINBLASTINE]
GI50 [1]: 2e-05 µM
CC50 [2, 49]: 5.73 nM
TGI [3]: 0.00191 µM
GI50 [16]: 0.036 nM
CC50 [17]: 0.00151 µM
TGI [18]: 0.00025 µM
GI50 [20]: < 0.25 nM
CC50 [21, 49]: 0.25 nM
TGI [22]: < 0.00025 µM
CC50 [23]: < 0.00025 µM
TGI [24]: < 0.00025 µM
GI50 [25]: < 0.25 nM
GI50 [27]: < 0.25 nM
CC50 [30, 49]: < 0.25 nM
TGI [31]: < 0.00025 µM
GI50 [32]: 3e-06 µM
CC50 [33]: 0.00328 µM
TGI [34]: 0.0008 µM

Nc1nc2c(ncn2COC(CO)CO)c(=O)[nH]1 [GANCICLOVIR]
MIC [4]: 9.6 µg/mL (≈ 37.6 µM)
MIC [5]: 0.0064 µg/mL (≈ 0.0251 µM)
MIC [46]: 0.019 µg/mL (≈ 0.0744 µM)
MIC [6]: > 100 µg/mL
MIC [47]: 9.6 µg/mL (≈ 37.6 µM)
MCC [8]: > 100 µg/mL
MCC [11]: > 50 µg/mL
MIC [12]: 2 µg/mL (≈ 7.84 µM)

O=c1[nH]c(=O)n([C@H]2C[C@H](O)[C@@H](CO)O2)cc1/C=C/Br [BRIVUDINE]
MIC [4]: > 400 µg/mL
MIC [5]: 0.05 µg/mL (≈ 0.15 µM)
MIC [46]: 80 µg/mL (≈ 240 µM)
MIC [6]: 3.2 µg/mL (≈ 9.61 µM)
MIC [48]: > 400 µg/mL
MIC [47]: 400 µg/mL (≈ 1200 µM)
MCC [8]: > 400 µg/mL
MCC [11]: > 50 µg/mL
MIC [13]: > 50 µg/mL
MIC [14]: 9 ng/mL (≈ 0.027 µM)
MIC [15]: > 400 µg/mL
MCC [19]: > 400 µg/mL
MCC [38]: > 400 µg/mL
MIC [39]: > 400 µg/mL
MIC [40]: > 400 µg/mL
MIC [41]: > 400 µg/mL
MIC [42]: > 400 µg/mL
MIC [43]: > 400 µg/mL
